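Cells were grown in 96-well plates and exposed to each compound for 48 hours at five concentrations; endpoints were interpolated linearly between bracketing concentrations, or set to the highest concentration if not reached. GI50 is the concentration that inhibits growth by half. TGI: concentration producing complete growth inhibition.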
Experiments:
Experiment in all cases: NCI tumour cell line growth inhibition, 48 h
SK-OV-3 ovarian = test system: SK-OV-3 ovarian
PC-3 prostate = test system: PC-3 prostate
MALME-3M melanoma = test system: MALME-3M melanoma
LOX IMVI melanoma = test system: LOX IMVI melanoma
HCT-15 colon = test system: HCT-15 colon
SF-539 CNS = test system: SF-539 CNS
SK-MEL-2 melanoma = test system: SK-MEL-2 melanoma
HCC-2998 colon = test system: HCC-2998 colon
XF 498 CNS = test system: XF 498 CNS
DMS 273 small cell lung = test system: DMS 273 small cell lung

Row | Compound | TGI (SK-OV-3 ovarian) | TGI (PC-3 prostate) | TGI (MALME-3M melanoma) | TGI (LOX IMVI melanoma) | TGI (HCT-15 colon) | TGI (SF-539 CNS) | TGI (SK-MEL-2 melanoma) | TGI (HCC-2998 colon) | TGI (XF 498 CNS) | TGI (DMS 273 small cell lung) | GI50 (SK-OV-3 ovarian) | GI50 (HCC-2998 colon) | GI50 (MALME-3M melanoma) | GI50 (LOX IMVI melanoma) | GI50 (HCT-15 colon) | GI50 (XF 498 CNS) | GI50 (SF-539 CNS) | GI50 (SK-MEL-2 melanoma) | GI50 (DMS 273 small cell lung)
1 | Cc1nc2sc3cccc(Cl)c3n2c(=O)c1N=Nc1ccc(Cl)cc1 | > 100 µM | > 100 µM | > 100 µM | > 100 µM | > 100 µM | > 100 µM | > 100 µM | – | – | – | – | – | – | – | – | – | – | – | –
2 | CCN(CC)CCNc1ccc2ncn3c4ccc(O)cc4c(=O)c1c23 | 18.2 µM | 14.5 µM | 15.8 µM | 3.15 µM | 13 µM | 16.9 µM | 21.4 µM | 18.1 µM | 7.42 µM | 12.5 µM | – | – | – | – | – | – | – | – | –
3 | CCOC(=O)c1c2c(n(-c3ccc(C)cc3)c1C)-c1ccccc1C(=O)C2(C(=O)OCC)C(=O)OCC | > 100 µM | > 100 µM | > 75.5 µM | > 84.5 µM | > 100 µM | > 71.9 µM | > 88.5 µM | 69.9 µM | – | – | – | – | – | – | – | – | – | – | –
4 | O=C(CSCC(=O)N/N=C/c1cccc(O)c1)N/N=C/c1cccc(O)c1 | > 100 µM | > 100 µM | > 100 µM | – | > 100 µM | > 100 µM | > 100 µM | > 100 µM | – | – | – | – | – | – | – | – | – | – | –
5 | COC(=O)c1cc2c(cc1Cl)Sc1nnc(Nc3ccccc3)n1S2(=O)=O | 19.4 µM | 10 µM | 11.6 µM | 93.6 µM | 6.05 µM | 6.07 µM | 8.79 µM | 4.59 µM | – | – | – | – | – | – | – | – | – | – | –
6 | O=S(=O)(/N=C(\NO)Nc1ccc(Cl)cc1)c1cc(C(F)(F)F)cc(C(F)(F)F)c1 | 35.2 µM | 31.5 µM | 37.1 µM | 34.2 µM | 38.7 µM | 46.6 µM | 32.7 µM | – | – | – | – | – | – | – | – | – | – | – | –
7 | C=CCNC(=O)C(C)C1CCC2(C)C=CC(=O)C(C)=C2C1O (configuration not stated) | > 100 µM | – | – | > 100 µM | > 100 µM | > 100 µM | > 100 µM | > 100 µM | > 100 µM | > 100 µM | – | – | – | – | – | – | – | – | –
8 | O=[N+]([O-])c1ccc(/C=N/Nc2nc3ccccc3[nH]2)o1 | > 100 µM | 49.2 µM | 30.7 µM | 35 µM | 42.8 µM | 13.8 µM | – | – | – | – | – | – | – | – | – | – | – | – | –
9 | CN1C(=O)CC(=O)N1/C(=C/c1ccccc1)c1ccccc1 | > 100 µM | > 100 µM | – | 31.2 µM | – | – | > 100 µM | > 100 µM | – | – | – | – | – | – | – | – | – | – | –
10 | O=C1c2cc(O)c(O)cc2O[C@H](c2ccc(O)c(O)c2)[C@H]1O | > 100 µM | > 100 µM | – | > 100 µM | > 100 µM | > 100 µM | > 100 µM | > 100 µM | – | – | – | – | – | – | – | – | – | – | –
11 | Oc1ccc(C(=C(Br)c2ccccc2)c2ccc(O)cc2)cc1 | 16.9 µM | 19.9 µM | 18 µM | 17 µM | 14.3 µM | 18.8 µM | 18.3 µM | 21.2 µM | – | – | – | – | – | – | – | – | – | – | –
12 | CC(SC(=S)N1CCOCC1)C(=O)Nc1nnc(-c2ccc(Cl)cc2)o1 (configuration not stated) | > 100 µM | > 100 µM | > 100 µM | > 100 µM | > 100 µM | > 100 µM | > 100 µM | > 100 µM | – | – | – | – | – | – | – | – | – | – | –
13 | C=C(C#N)C(=O)OCC(CC)CC.C=C(C#N)C(=O)OCC(CC)CC.CS(C)=O.CS(C)=O.Nc1c(N=Nc2ccc(-c3ccc(N=Nc4cc(S(=O)(=O)[O-])c5ccccc5c4N)cc3)cc2)cc(S(=O)(=O)[O-])c2ccccc12.[Pt+2] | > 100 µM | – | 50 µM | > 84.9 µM | > 69.3 µM | > 100 µM | 50.4 µM | > 100 µM | 40.9 µM | > 100 µM | 97.9 µM | 48.9 µM | 21.8 µM | 35 µM | 33.2 µM | 21.1 µM | 84.7 µM | 21.2 µM | 40.4 µM
14 | Cc1ccc(S(=O)(=O)OC2CC(C(C)(C)C)CCC2c2ccccc2)cc1 (configuration not stated) | > 100 µM | > 100 µM | – | > 100 µM | > 100 µM | > 100 µM | > 100 µM | – | – | – | – | – | – | – | – | – | – | – | –
15 | COc1ccc(OC)c2sc(N3C(=O)/C(=C/c4cccc(Oc5ccccc5)c4)N=C3c3ccccc3)nc12 | > 100 µM | > 100 µM | > 100 µM | > 100 µM | > 100 µM | – | > 100 µM | > 100 µM | – | – | – | – | – | – | – | – | – | – | –
16 | COc1ccc2nc3c(c(N)c2c1)C1CCC3C1(C)C (configuration not stated) | > 100 µM | > 100 µM | 67.3 µM | > 100 µM | > 100 µM | > 100 µM | 67.1 µM | 31.9 µM | – | – | – | – | – | – | – | – | – | – | –
17 | O=C1c2cc3c(cc2-c2c1c1ccc(Cl)cc1c(=O)n2C[C@H](O)CO)OCO3 | 1.66 µM | – | – | 0.0781 µM | 1.28 µM | 0.093 µM | 1.11 µM | 0.701 µM | – | – | 0.0444 µM | 0.122 µM | – | 0.0122 µM | 0.11 µM | – | 0.0253 µM | 0.284 µM | –
18 | Cc1ccc(S(=O)(=O)N(CC(O)COc2ccccc2)c2c(F)cccc2F)cc1 (configuration not stated) | 41.3 µM | 36.9 µM | 52.4 µM | 28.5 µM | 37 µM | 33 µM | 32.5 µM | 47.6 µM | – | – | – | – | – | – | – | – | – | – | –
19 | CSc1nncc(-c2cc3c(c(SC)n2)CCCC3)n1 | > 100 µM | > 100 µM | – | – | > 100 µM | > 100 µM | > 100 µM | > 100 µM | – | – | – | – | – | – | – | – | – | – | –
20 | O=c1[nH]c2[nH]c(=S)[nH]c(=S)c2[nH]1 | – | > 100 µM | > 100 µM | > 100 µM | > 100 µM | – | > 100 µM | > 100 µM | – | – | – | – | – | – | – | – | – | – | –
21 | Cc1cccc2sc(NC(=O)NS(=O)(=O)n3cnc4ccccc43)nc12 | > 100 µM | 95.3 µM | 72 µM | – | > 100 µM | 78 µM | 35.6 µM | 30.3 µM | – | – | – | – | – | – | – | – | – | – | –
22 | O=C1C(Cl)N(c2ccccc2Cl)C1c1c[nH]c2ccccc12 (configuration not stated) | > 100 µM | – | > 100 µM | – | – | > 100 µM | > 100 µM | – | > 100 µM | – | – | – | – | – | – | – | – | – | –
